Values of other authors, collected in PubChem BioAssay AID1259409 (Chemical Carcinogenesis Research Information System (CCRIS), 2018).

Test system: rodent chemically induced tumor inhibition, incidence and multiplicity
Assay: CCRIS tumor inhibitor studies
Settings: Species: MOUSE

SMILES: O=c1c(O)c(-c2ccc(O)c(O)c2)oc2cc(O)cc(O)c12
- tumour outcome (control, treated, inhibition, significance) (Carcinogen: 7,12-DIMETHYLBENZ[A]ANTHRACENE, 57-97-6, Dose [Inhibitor]: 30 UMOL IN 100 µL ACETONE/DIMETHYL SULFOXIDE (4/1, V/V) 2/WK 40 MINUTES BEFORE AND CONCURRENTLY WITH EACH PROMOTER TREAT, Route [Inhibitor]: DERMAL, Strain/Sex: ICR/FEMALE, Target Tissue: Type of Lesion: SKIN: PAPILLOMA, Dose [Carcinogen]: 100 UG IN 100 µL ACETONE ONCE, Promoter: TELEOCIDIN, 78474-55-2): 80%, 30%, 63%, not calculated
- tumour outcome (control, treated, inhibition, significance) (Carcinogen: 7,12-DIMETHYLBENZ[A]ANTHRACENE, 57-97-6, Dose [Inhibitor]: 100 UG IN 0.2 ML ACETONE ONCE 5 MIN BEFORE CARCINOGEN TREATMENT (STUDY DURATION: 31 WK), Route [Inhibitor]: DERMAL, Strain/Sex: CD-1/FEMALE, Target Tissue: Type of Lesion: SKIN: PAPILLOMA, Dose [Carcinogen]: 10 NMOL IN 0.2 ML ACETONE ONCE, Promoter: 12-O-TETRADECANOYLPHORBOL-13-ACETATE, 16561-29-8): 87%, 70%, 20%, not calculated
- tumour outcome (control, treated, inhibition, significance) (Carcinogen: (+/-)-7BETA,8ALPHA-DIHYDROXY-9ALPHA,10ALPHA-EPOXY-7,8,9,10- TETRAHYDROBENZO[A]PYRENE, 58917-67-2, Dose [Inhibitor]: 3000 NMOL IN 0.2 ML ACETONE 1/D FOR 7 D (STUDY DURATION: 18 WK), Route [Inhibitor]: DERMAL, Strain/Sex: SENCAR/FEMALE, Target Tissue: Type of Lesion: SKIN: TUMOR, Dose [Carcinogen]: 200 NMOL IN 0.2 ML ACETONE ONCE 30 MIN POST LAST CARCINOGEN DOSE, Promoter: 12-O-TETRADECANOYLPHORBOL-13-ACETATE, 16561-29-8): 75%, 65%, 13%, not significant
- tumour outcome (control, treated, inhibition, significance) (Carcinogen: (+/-)-7BETA,8ALPHA-DIHYDROXY-9ALPHA,10ALPHA-EPOXY-7,8,9,10-TETRAHYDROBENZO[A]PYR ENE, 58917-67-2, Dose [Inhibitor]: 0, 1400 NMOL (TOTAL DOSE) APPLIED 10 MIN PRIOR TO CARCINOGEN DOSE INJECTED AS 1/7, 2/7, AND 4/7 OF THE TOTAL ON DAYS 1,, Route [Inhibitor]: INTRAPERITONEAL, Strain/Sex: ICR/MALE,FEMALE, Target Tissue: Type of Lesion: LUNG: TUMOR, Dose [Carcinogen]: 30 NMOL (TOTAL DOSE) INJECTED IN DOSES OF 1/7, 2/7, AND 4/7 ON DAYS 1, 8, AND 15 OF LIFE, RESPECTIVELY, Promoter: NONE USED): 93%, 81%, 13%, not significant
- tumour outcome (control, treated, inhibition, significance) (Carcinogen: (+/-)-7BETA,8ALPHA-DIHYDROXY-9ALPHA,10ALPHA-EPOXY-7,8,9,10-TETRAHYDROBENZO[A]PYR ENE, 58917-67-2, Dose [Inhibitor]: 0, 2500 NMOL IN 200 µL ACETONE:DMSO (90:10) ONCE APPLIED 5 MIN PRIOR TO CARCINOGEN DOSE (STUDY DURATION: 21 WK), Route [Inhibitor]: DERMAL, Strain/Sex: CD-1/FEMALE, Target Tissue: Type of Lesion: SKIN: TUMOR, Dose [Carcinogen]: 200 NMOL IN ACETONE:DMSO (90:10) ONCE, Promoter: 12-O-TETRADECANOYLPHORBOL-13-ACETATE, 16561-29-8): 59%, 69%, -17%, not significant
- tumour outcome (control, treated, inhibition, significance) (Carcinogen: AZOXYMETHANE, 25843-45-2, Dose [Inhibitor]: 0, 0.1% IN DIET FOR DURATION OF STUDY (STUDY DURATION: 48 WK), Route [Inhibitor]: ORAL, Strain/Sex: CF-1/FEMALE, Target Tissue: Type of Lesion: COLON: TUMOR, Dose [Carcinogen]: 10 MG/KG BW 3 TIMES, Promoter: NONE USED): 8/32 (25%), 5/32 (16%), 36%, not significant
- tumour outcome (control, treated, inhibition, significance) (Carcinogen: AZOXYMETHANE, 25843-45-2, Dose [Inhibitor]: 0, 0.5% IN DIET FOR DURATION OF STUDY (STUDY DURATION: 48 WK), Route [Inhibitor]: ORAL, Strain/Sex: CF-1/FEMALE, Target Tissue: Type of Lesion: COLON: TUMOR, Dose [Carcinogen]: 10 MG/KG BW 3 TIMES, Promoter: NONE USED): 8/32 (25%), 7/35 (20%), 20%, not significant
- tumour outcome (control, treated, inhibition, significance) (Carcinogen: AZOXYMETHANE, 25843-45-2, Dose [Inhibitor]: 0, 2% IN DIET FOR DURATION OF STUDY (STUDY DURATION: 48 WK), Route [Inhibitor]: ORAL, Strain/Sex: CF-1/FEMALE, Target Tissue: Type of Lesion: COLON: TUMOR, Dose [Carcinogen]: 10 MG/KG BW 3 TIMES, Promoter: NONE USED): 8/32 (25%), 2/34 (6%), 76%, p=0.003
- tumour outcome (control, treated, inhibition, significance) (Carcinogen: BENZO[A]PYRENE, 50-32-8, Dose [Inhibitor]: 0, 1400 NMOL (TOTAL DOSE) APPLIED 10 MIN PRIOR TO CARCINOGEN DOSE INJECTED AS 1/7, 2/7, AND 4/7 OF THE TOTAL ON DAYS 1,, Route [Inhibitor]: INTRAPERITONEAL, Strain/Sex: ICR/MALE,FEMALE, Target Tissue: Type of Lesion: LUNG: TUMOR, Dose [Carcinogen]: 450 NMOL (TOTAL DOSE) INJECTED IN DOSES OF 1/7, 2/7, AND 4/7 ON DAYS 1, 8, AND 15 OF LIFE, RESPECTIVELY, Promoter: NONE USED): 73%, 68%, 7%, not significant
- tumour outcome (control, treated, inhibition, significance) (Carcinogen: BENZO[A]PYRENE, 50-32-8, Dose [Inhibitor]: 0, 2500 NMOL IN 200 µL ACETONE:DMSO (90:10) ONCE APPLIED 5 MIN PRIOR TO CARCINOGEN DOSE (STUDY DURATION: 21 WK), Route [Inhibitor]: DERMAL, Strain/Sex: CD-1/FEMALE, Target Tissue: Type of Lesion: SKIN: TUMOR, Dose [Carcinogen]: 50 NMOL IN ACETONE:DMSO (90:10) ONCE, Promoter: 12-O-TETRADECANOYLPHORBOL-13-ACETATE, 16561-29-8): 50%, 45%, 10%, not significant
- tumour outcome (control, treated, inhibition, significance) (Carcinogen: BENZO[A]PYRENE, 50-32-8, Dose [Inhibitor]: 0, 12500 NMOL IN 200 µL ACETONE:DMSO (90:10) ONCE APPLIED 5 MIN PRIOR TO CARCINOGEN DOSE (STUDY DURATION: 21 WK), Route [Inhibitor]: DERMAL, Strain/Sex: CD-1/FEMALE, Target Tissue: Type of Lesion: SKIN: TUMOR, Dose [Carcinogen]: 50 NMOL IN ACETONE:DMSO (90:10) ONCE, Promoter: 12-O-TETRADECANOYLPHORBOL-13-ACETATE, 16561-29-8): 50%, 55%, -10%, not significant
- tumour outcome (control, treated, inhibition, significance) (Carcinogen: BENZO[A]PYRENE, 50-32-8, Dose [Inhibitor]: 25 MG IN 0.1 ML DMSO 3/WK ADMINISTERED SIMULTANEOUSLY WITH CARCINOGEN FOR DURATION OF STUDY (STUDY DURATION: 368 D), Route [Inhibitor]: DERMAL, Strain/Sex: ICR/FEMALE, Target Tissue: Type of Lesion: SKIN: SQUAMOUS CARCINOMA, Dose [Carcinogen]: 5 UG IN 0.1 ML DMSO THAT ALSO CONTAINED AGENT 3/WK FOR DURATION OF STUDY, Promoter: NONE USED): 6/50 (12%), 0/50 (0%), 100%, not calculated
